Test results: paper PMC4310556, “Radiosynthesis and in Vivo Evaluation of Two PET Radioligands for Imaging α-Synuclein” (Applied sciences (Basel, Switzerland), 2014)
Values joined by “and” are separate entries in the source; they are usually repeats but may differ in a detail not shown here. Identical values can stand only once.

Experiments:
[1] = Ex vivo biodistribution in rats; set-up: species or system Sprague-Dawley rats; conditions: for Blood-brain barrier penetration: ex vivo rat biodistribution; for Biodistribution, blood / Biodistribution, brain (total brain uptake) / Biodistribution, fat / Biodistribution, heart / Biodistribution, kidney / Biodistribution, liver / Biodistribution, lung / Biodistribution, muscle / Biodistribution, pancreas / Biodistribution, spleen / Biodistribution, bone: male Sprague-Dawley rats, i.v. tail vein, n = 4; for Distribution of radioactivity in brain regions: rat brain regions, Figure 2
Experimental: All animal experiments were conducted in compliance with the Guidelines for the Care and Use of Research Animals under protocols approved by Washington University's Animal Studies Committee. […] Group of rats (n = 4) were used for each time point. […] The whole brain was quickly removed and dissected into segments consisting of brain stem, thalamus, striatum, hippocampus, cortex and cerebellum. The remainder of the brain was also collected to determine total brain uptake. […] Tissues were weighed, and the percent injected dose (%ID)/gram for each tissue was calculated.

[2] = MicroPET brain imaging in cynomolgus macaque; type: in vivo
Experimental: Before each scan (n = 2), the animal was fasted for 12 h and then initially anesthetized with ketamine (10 mg/kg) and glycopyrrolate (0.13 mg/kg) intramuscularly. Upon arrival at the scanner, the monkey was intubated, and a percutaneous catheter placed for tracer injection. The head was positioned supine in the adjustable head holder with the brain in the center of the field of view. Anesthesia was maintained at 0.75%–2.0% isoflurane/oxygen and the core temperature maintained at 37 °C. A 10-min transmission scan was performed to confirm positioning; this was followed by a 45-min transmission scan for attenuation correction.

[3] = healthy cynomolgus macaque, microPET

Compound: [11CH3]Oc1ccc2c(c1)Sc1cc([N+](=O)[O-])ccc1N2 [[^11C]2a]
- Blood-brain barrier penetration [1]: crossed the blood-brain barrier (BBB)
- Biodistribution, blood ([1]; 5 min post injection): 0.506 ± 0.040 %ID/gram
- Biodistribution, brain (total brain uptake) ([1]; 5 min post injection): 0.953 ± 0.115 %ID/gram
- Biodistribution, fat ([1]; 5 min post injection): 0.155 ± 0.023 %ID/gram
- Biodistribution, heart ([1]; 5 min post injection): 0.758 ± 0.052 %ID/gram
- Biodistribution, kidney ([1]; 5 min post injection): 1.362 ± 0.054 %ID/gram
- Biodistribution, liver ([1]; 5 min post injection): 2.198 ± 0.111 %ID/gram
- Biodistribution, lung ([1]; 5 min post injection): 1.149 ± 0.058 %ID/gram
- Biodistribution, muscle ([1]; 5 min post injection): 0.271 ± 0.005 %ID/gram
- Biodistribution, pancreas ([1]; 5 min post injection): 1.007 ± 0.262 %ID/gram
- Biodistribution, spleen ([1]; 5 min post injection): 0.659 ± 0.049 %ID/gram
- Biodistribution, blood ([1]; 30 min post injection): 0.369 ± 0.031 %ID/gram
- Biodistribution, brain (total brain uptake) ([1]; 30 min post injection): 0.287 ± 0.046 %ID/gram
- Biodistribution, fat ([1]; 30 min post injection): 0.241 ± 0.042 %ID/gram
- Biodistribution, heart ([1]; 30 min post injection): 0.377 ± 0.046 %ID/gram
- Biodistribution, kidney ([1]; 30 min post injection): 0.807 ± 0.086 %ID/gram
- Biodistribution, liver ([1]; 30 min post injection): 1.349 ± 0.116 %ID/gram
- Biodistribution, lung ([1]; 30 min post injection): 0.740 ± 0.038 %ID/gram
- Biodistribution, muscle ([1]; 30 min post injection): 0.325 ± 0.030 %ID/gram
- Biodistribution, pancreas ([1]; 30 min post injection): 0.506 ± 0.066 %ID/gram
- Biodistribution, spleen ([1]; 30 min post injection): 0.400 ± 0.052 %ID/gram
- Biodistribution, blood ([1]; 60 min post injection): 0.300 ± 0.015 %ID/gram
- Biodistribution, brain (total brain uptake) ([1]; 60 min post injection): 0.158 ± 0.014 %ID/gram and 0.158 ± 0.013 %ID/gram
- Biodistribution, fat ([1]; 60 min post injection): 0.293 ± 0.076 %ID/gram
- Biodistribution, heart ([1]; 60 min post injection): 0.245 ± 0.010 %ID/gram
- Biodistribution, kidney ([1]; 60 min post injection): 0.559 ± 0.053 %ID/gram
- Biodistribution, liver ([1]; 60 min post injection): 1.116 ± 0.024 %ID/gram
- Biodistribution, lung ([1]; 60 min post injection): 0.485 ± 0.036 %ID/gram
- Biodistribution, muscle ([1]; 60 min post injection): 0.199 ± 0.016 %ID/gram
- Biodistribution, pancreas ([1]; 60 min post injection): 0.522 ± 0.036 %ID/gram
- Biodistribution, spleen ([1]; 60 min post injection): 0.386 ± 0.027 %ID/gram
- Distribution of radioactivity in brain regions [1]: homogeneous distribution in the brain regions
- Time of peak brain uptake post-injection (time-activity curve) ([2]; healthy adult male cynomolgus macaque, i.v., microPET): 3 min
- Blood-brain barrier penetration [2, 3]: able to cross the BBB
- Brain washout kinetics [2, 3]: fast washout kinetics from the brain regions
- Distribution of radioactivity in the brain ([2]; healthy cynomolgus macaque, summed image 0-120 min): homogeneous distribution of radioactivity in the brain

Compound: O=[N+]([O-])c1ccc2c(c1)Sc1cc(OCC[18F])ccc1N2 [[^18F]2b]
- Blood-brain barrier penetration [1]: crossed the blood-brain barrier (BBB)
- Biodistribution, blood ([1]; 5 min post injection): 0.553 ± 0.047 %ID/gram
- Biodistribution, bone ([1]; 5 min post injection): 0.340 ± 0.027 %ID/gram
- Biodistribution, brain (total brain uptake) ([1]; 5 min post injection): 0.758 ± 0.013 %ID/gram
- Biodistribution, fat ([1]; 5 min post injection): 0.255 ± 0.037 %ID/gram
- Biodistribution, heart ([1]; 5 min post injection): 0.757 ± 0.033 %ID/gram
- Biodistribution, kidney ([1]; 5 min post injection): 1.070 ± 0.058 %ID/gram
- Biodistribution, liver ([1]; 5 min post injection): 1.626 ± 0.221 %ID/gram
- Biodistribution, lung ([1]; 5 min post injection): 0.833 ± 0.053 %ID/gram
- Biodistribution, muscle ([1]; 5 min post injection): 0.430 ± 0.031 %ID/gram
- Biodistribution, pancreas ([1]; 5 min post injection): 1.004 ± 0.147 %ID/gram
- Biodistribution, spleen ([1]; 5 min post injection): 0.672 ± 0.064 %ID/gram
- Biodistribution, blood ([1]; 30 min post injection): 0.589 ± 0.016 %ID/gram
- Biodistribution, bone ([1]; 30 min post injection): 0.309 ± 0.020 %ID/gram
- Biodistribution, brain (total brain uptake) ([1]; 30 min post injection): 0.465 ± 0.018 %ID/gram
- Biodistribution, fat ([1]; 30 min post injection): 0.425 ± 0.023 %ID/gram
- Biodistribution, heart ([1]; 30 min post injection): 0.505 ± 0.015 %ID/gram
- Biodistribution, kidney ([1]; 30 min post injection): 0.988 ± 0.090 %ID/gram
- Biodistribution, liver ([1]; 30 min post injection): 0.847 ± 0.027 %ID/gram
- Biodistribution, lung ([1]; 30 min post injection): 0.561 ± 0.021 %ID/gram
- Biodistribution, muscle ([1]; 30 min post injection): 0.451 ± 0.018 %ID/gram
- Biodistribution, pancreas ([1]; 30 min post injection): 0.546 ± 0.068 %ID/gram
- Biodistribution, spleen ([1]; 30 min post injection): 0.509 ± 0.022 %ID/gram
- Biodistribution, blood ([1]; 60 min post injection): 0.606 ± 0.035 %ID/gram
- Biodistribution, bone ([1]; 60 min post injection): 0.407 ± 0.043 %ID/gram
- Biodistribution, brain (total brain uptake) ([1]; 60 min post injection): 0.410 ± 0.030 %ID/gram
- Biodistribution, fat ([1]; 60 min post injection): 0.371 ± 0.067 %ID/gram
- Biodistribution, heart ([1]; 60 min post injection): 0.466 ± 0.040 %ID/gram
- Biodistribution, kidney ([1]; 60 min post injection): 0.678 ± 0.032 %ID/gram
- Biodistribution, liver ([1]; 60 min post injection): 0.561 ± 0.028 %ID/gram
- Biodistribution, lung ([1]; 60 min post injection): 0.491 ± 0.030 %ID/gram
- Biodistribution, muscle ([1]; 60 min post injection): 0.376 ± 0.019 %ID/gram
- Biodistribution, pancreas ([1]; 60 min post injection): 0.409 ± 0.029 %ID/gram
- Biodistribution, spleen ([1]; 60 min post injection): 0.446 ± 0.038 %ID/gram
- Biodistribution, blood ([1]; 120 min post injection): 0.585 ± 0.046 %ID/gram
- Biodistribution, bone ([1]; 120 min post injection): 0.644 ± 0.071 %ID/gram
- Biodistribution, brain (total brain uptake) ([1]; 120 min post injection): 0.359 ± 0.016 %ID/gram
- Biodistribution, fat ([1]; 120 min post injection): 0.293 ± 0.048 %ID/gram
- Biodistribution, heart ([1]; 120 min post injection): 0.410 ± 0.030 %ID/gram
- Biodistribution, kidney ([1]; 120 min post injection): 0.659 ± 0.027 %ID/gram
- Biodistribution, liver ([1]; 120 min post injection): 0.467 ± 0.023 %ID/gram
- Biodistribution, lung ([1]; 120 min post injection): 0.436 ± 0.018 %ID/gram
- Biodistribution, muscle ([1]; 120 min post injection): 0.315 ± 0.015 %ID/gram
- Biodistribution, pancreas ([1]; 120 min post injection): 0.330 ± 0.021 %ID/gram
- Biodistribution, spleen ([1]; 120 min post injection): 0.398 ± 0.019 %ID/gram
- Distribution of radioactivity in brain regions [1]: homogeneous distribution in the brain regions
- In vivo defluorination (bone uptake) ([1]; rats, bone uptake up to 120 min): no defluorination was observed
